In US20080051387A1, “TETRAHYDROPYRIDO[3,4-D]PYRIMIDINES AND RELATED ANALOGUES” (priority 2006, published 2008):

Target: T1, chimeric human H3 receptor (Homo sapiens, UniProt Q9Y5N1)
T1 construct: rat Galpha-i2 (Gnai2, rat); made in house; host or cells: Sf9 insect cells (baculovirus); P2 membranes
Test: Chimeric human H3 receptor screening GTP binding assay (inhibition of histamine-stimulated GTP-gamma35S binding, Example 8)
Format: biochemical
Settings: symbol ! in Ki; test compound 4 μM, 1 μM histamine; read-out: percent inhibition of agonist-induced GTP-gammaS binding to H3
Procedure, shortened: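 Compound tested at 4 μM against 1 μM histamine stimulation; 125 pM GTP-gamma35S binding measured by filtration and scintillation after 60 min at room temperature. Membranes from Sf9 cells expressing chimeric human H3 plus G-protein subunits, in Tris pH 7.4/NaCl/MgCl2/GDP buffer; values are % inhibition after nonspecific subtraction.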

T1 sequence (Q9Y5N1 with tags, fused parts or gaps): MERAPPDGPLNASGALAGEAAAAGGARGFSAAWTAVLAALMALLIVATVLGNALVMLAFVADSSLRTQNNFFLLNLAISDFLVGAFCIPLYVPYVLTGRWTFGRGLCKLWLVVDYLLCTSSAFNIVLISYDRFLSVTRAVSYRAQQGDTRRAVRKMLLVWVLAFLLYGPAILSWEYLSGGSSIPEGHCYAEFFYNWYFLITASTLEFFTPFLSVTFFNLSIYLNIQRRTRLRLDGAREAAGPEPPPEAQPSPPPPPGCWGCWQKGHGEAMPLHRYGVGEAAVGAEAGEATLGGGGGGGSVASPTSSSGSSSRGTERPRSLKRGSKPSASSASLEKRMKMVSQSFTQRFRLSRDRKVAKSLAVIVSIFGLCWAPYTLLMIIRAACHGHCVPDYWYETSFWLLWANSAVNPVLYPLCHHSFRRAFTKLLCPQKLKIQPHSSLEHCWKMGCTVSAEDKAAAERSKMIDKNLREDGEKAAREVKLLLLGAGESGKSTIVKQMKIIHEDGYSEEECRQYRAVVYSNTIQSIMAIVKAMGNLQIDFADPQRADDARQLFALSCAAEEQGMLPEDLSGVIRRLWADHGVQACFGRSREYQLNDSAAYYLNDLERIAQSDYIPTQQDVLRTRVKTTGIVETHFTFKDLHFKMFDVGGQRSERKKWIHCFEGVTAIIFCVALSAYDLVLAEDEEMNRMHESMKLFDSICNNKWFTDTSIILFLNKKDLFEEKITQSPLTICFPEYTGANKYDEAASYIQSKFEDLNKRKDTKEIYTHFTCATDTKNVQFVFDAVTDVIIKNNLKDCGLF

Inhibition at 4 µM, ≥ 90%:
Cc1cccc(C(C)N2CCc3c(ncnc3N3CCN(C4CCC4)CC3)C2)n1 (stereo not shown) [Compound 110, 4-(4-cyclobutylpiperazin-1-yl)-7-[1-(6-methylpyridin-2-yl)ethyl]-5,6,7,8-tetrahydropyrido[3,4-d]pyrimidine]
CC(c1ccc(N2CCOCC2)nc1)N1CCc2c(ncnc2N2CCN(C3CCC3)CC2)C1 (stereo not shown) [Compound 111, 4-(4-cyclobutylpiperazin-1-yl)-7-[1-(6-morpholin-4-ylpyridin-3-yl)ethyl]-5,6,7,8-tetrahydropyrido[3,4-d]pyrimidine]
Cc1cc(C(C)N2CCc3c(ncnc3N3CCN(C4CCC4)CC3)C2)n(C)n1 (stereo not shown) [Compound 112, 4-(4-cyclobutylpiperazin-1-yl)-7-[1-(1,3-dimethyl-1H-pyrazol-5-yl)ethyl]-5,6,7,8-tetrahydropyrido[3,4-d]pyrimidine]
COc1ccccc1C(C)N1CCc2c(ncnc2N2CCN(C3CCC3)CC2)C1 (stereo not shown) [Compound 113, 4-(4-cyclobutylpiperazin-1-yl)-7-[1-(2-methoxyphenyl)ethyl]-5,6,7,8-tetrahydropyrido[3,4-d]pyrimidine]
COc1ccc(C(C)N2CCc3c(ncnc3N3CCN(C4CCC4)CC3)C2)c(OC)c1 (stereo not shown) [Compound 114, 4-(4-cyclobutylpiperazin-1-yl)-7-[1-(2,4-dimethoxyphenyl)ethyl]-5,6,7,8-tetrahydropyrido[3,4-d]pyrimidine]
CC(C)c1ccc(C(C)N2CCc3c(ncnc3N3CCN(C4CCC4)CC3)C2)cc1 (stereo not shown) [Compound 115, 4-(4-cyclobutylpiperazin-1-yl)-7-[1-(4-isopropylphenyl)ethyl]-5,6,7,8-tetrahydropyrido[3,4-d]pyrimidine]
CC(C)CC(C)N1CCc2c(ncnc2N2CCN(C3CCC3)CC2)C1 (stereo not shown) [Compound 116, 4-(4-cyclobutylpiperazin-1-yl)-7-(1,3-dimethylbutyl)-5,6,7,8-tetrahydropyrido[3,4-d]pyrimidine]
CCC(C)N1CCc2c(ncnc2N2CCN(C3CCC3)CC2)C1 (stereo not shown) [Compound 117, 7-sec-butyl-4-(4-cyclobutylpiperazin-1-yl)-5,6,7,8-tetrahydropyrido[3,4-d]pyrimidine]
CCCC(C)N1CCc2c(ncnc2N2CCN(C3CCC3)CC2)C1 (stereo not shown) [Compound 118, 4-(4-cyclobutylpiperazin-1-yl)-7-(1-methylbutyl)-5,6,7,8-tetrahydropyrido[3,4-d]pyrimidine]
CCCCC(C)N1CCc2c(ncnc2N2CCN(C3CCC3)CC2)C1 (stereo not shown) [Compound 119, 4-(4-cyclobutylpiperazin-1-yl)-7-(1-methylpentyl)-5,6,7,8-tetrahydropyrido[3,4-d]pyrimidine]
CCCCCC(C)N1CCc2c(ncnc2N2CCN(C3CCC3)CC2)C1 (stereo not shown) [Compound 120, 4-(4-cyclobutylpiperazin-1-yl)-7-(1-methylhexyl)-5,6,7,8-tetrahydropyrido[3,4-d]pyrimidine]
CC(C)C(C)N1CCc2c(ncnc2N2CCN(C3CCC3)CC2)C1 (stereo not shown) [Compound 121, 4-(4-cyclobutylpiperazin-1-yl)-7-(1,2-dimethylpropyl)-5,6,7,8-tetrahydropyrido[3,4-d]pyrimidine]
CCC(C)C(C)N1CCc2c(ncnc2N2CCN(C3CCC3)CC2)C1 (stereo not shown) [Compound 122, 4-(4-cyclobutylpiperazin-1-yl)-7-(1,2-dimethylbutyl)-5,6,7,8-tetrahydropyrido[3,4-d]pyrimidine]
CCC(CC)C(C)N1CCc2c(ncnc2N2CCN(C3CCC3)CC2)C1 (stereo not shown) [Compound 123, 4-(4-cyclobutylpiperazin-1-yl)-7-(2-ethyl-1-methylbutyl)-5,6,7,8-tetrahydropyrido[3,4-d]pyrimidine]
CC(C1CC1)N1CCc2c(ncnc2N2CCN(C3CCC3)CC2)C1 (stereo not shown) [Compound 124, 4-(4-cyclobutylpiperazin-1-yl)-7-(1-cyclopropylethyl)-5,6,7,8-tetrahydropyrido[3,4-d]pyrimidine]
CCCC(C)C(C)N1CCc2c(ncnc2N2CCN(C3CCC3)CC2)C1 (stereo not shown) [Compound 125, 4-(4-cyclobutylpiperazin-1-yl)-7-(1,2-dimethylpentyl)-5,6,7,8-tetrahydropyrido[3,4-d]pyrimidine]
CC(C1CCCCC1)N1CCc2c(ncnc2N2CCN(C3CCC3)CC2)C1 (stereo not shown) [Compound 126, 4-(4-cyclobutylpiperazin-1-yl)-7-(1-cyclohexylethyl)-5,6,7,8-tetrahydropyrido[3,4-d]pyrimidine]
CC(C1CCOC1)N1CCc2c(ncnc2N2CCN(C3CCC3)CC2)C1 (stereo not shown) [Compound 127, 4-(4-cyclobutylpiperazin-1-yl)-7-[1-(tetrahydrofuran-3-yl)ethyl]-5,6,7,8-tetrahydropyrido[3,4-d]pyrimidine]
Cc1ccc(C(C)N2CCc3c(ncnc3N3CCN(C4CCC4)CC3)C2)cc1C (stereo not shown) [Compound 128, 4-(4-cyclobutylpiperazin-1-yl)-7-[1-(3,4-dimethylphenyl)ethyl]-5,6,7,8-tetrahydropyrido[3,4-d]pyrimidine]
CC(c1ccc2c(c1)OCCO2)N1CCc2c(ncnc2N2CCN(C3CCC3)CC2)C1 (stereo not shown) [Compound 129, 4-(4-cyclobutylpiperazin-1-yl)-7-[1-(2,3-dihydro-1,4-benzodioxin-6-yl)ethyl]-5,6,7,8-tetrahydropyrido[3,4-d]pyrimidine]
CC(c1ccc2ccccc2n1)N1CCc2c(ncnc2N2CCN(C3CCC3)CC2)C1 (stereo not shown) [Compound 130, 4-(4-cyclobutylpiperazin-1-yl)-7-(1-quinolin-2-ylethyl)-5,6,7,8-tetrahydropyrido[3,4-d]pyrimidine]
COc1cccc(C(C)N2CCc3c(ncnc3N3CCN(C4CCC4)CC3)C2)c1OC (stereo not shown) [Compound 131, 4-(4-cyclobutylpiperazin-1-yl)-7-[1-(2,3-dimethoxyphenyl)ethyl]-5,6,7,8-tetrahydropyrido[3,4-d]pyrimidine]
COc1ccc(OC)c(C(C)N2CCc3c(ncnc3N3CCN(C4CCC4)CC3)C2)c1 (stereo not shown) [Compound 132, 4-(4-cyclobutylpiperazin-1-yl)-7-[1-(2,5-dimethoxyphenyl)ethyl]-5,6,7,8-tetrahydropyrido[3,4-d]pyrimidine]
CC(c1ccc(N2CCCC2)nc1)N1CCc2c(ncnc2N2CCN(C3CCC3)CC2)C1 (stereo not shown) [Compound 133, 4-(4-cyclobutylpiperazin-1-yl)-7-[1-(6-pyrrolidin-1-ylpyridin-3-yl)ethyl]-5,6,7,8-tetrahydropyrido[3,4-d]pyrimidine]
Cc1c(F)cccc1C(C)N1CCc2c(ncnc2N2CCN(C3CCC3)CC2)C1 (stereo not shown) [Compound 134, 4-(4-cyclobutylpiperazin-1-yl)-7-[1-(3-fluoro-2-methylphenyl)ethyl]-5,6,7,8-tetrahydropyrido[3,4-d]pyrimidine]
CC(c1ccccc1Cl)N1CCc2c(ncnc2N2CCN(C3CCC3)CC2)C1 (stereo not shown) [Compound 135, 7-[1-(2-chlorophenyl)ethyl]-4-(4-cyclobutylpiperazin-1-yl)-5,6,7,8-tetrahydropyrido[3,4-d]pyrimidine]
CC(c1ccc(Cl)cc1Cl)N1CCc2c(ncnc2N2CCN(C3CCC3)CC2)C1 (stereo not shown) [Compound 136, 4-(4-cyclobutylpiperazin-1-yl)-7-[1-(2,4-dichlorophenyl)ethyl]-5,6,7,8-tetrahydropyrido[3,4-d]pyrimidine]
CC(c1ccc(N2CCCC2)cc1)N1CCc2c(ncnc2N2CCN(C3CCC3)CC2)C1 (stereo not shown) [Compound 137, 4-(4-cyclobutylpiperazin-1-yl)-7-[1-(4-pyrrolidin-1-ylphenyl)ethyl]-5,6,7,8-tetrahydropyrido[3,4-d]pyrimidine]
FC(F)(F)c1ccc(N2CCc3c(ncnc3N3CCN(C4CCC4)CC3)C2)nc1 [Compound 138, 4-(4-cyclobutylpiperazin-1-yl)-7-[5-(trifluoromethyl)pyridin-2-yl]-5,6,7,8-tetrahydropyrido[3,4-d]pyrimidine]
COC(=O)c1ccc(CN2CCc3c(ncnc3N3CCN(C4CCC4)CC3)C2)cc1 [Compound 139, methyl 4-{[4-(4-cyclobutylpiperazin-1-yl)-5,8-dihydropyrido[3,4-d]pyrimidin-7(6H)-yl]methyl}benzoate]
CNC(=O)c1ccc(CN2CCc3c(ncnc3N3CCN(C4CCC4)CC3)C2)cc1 [Compound 140, 4-{[4-(4-cyclobutylpiperazin-1-yl)-5,8-dihydropyrido[3,4-d]pyrimidin-7(6H)-yl]methyl}-N-methylbenzamide]
c1ccc(CN2CCc3ncnc(N4CCN(C5CCCC5)CC4)c3C2)cc1 [Compound 141, 6-benzyl-4-(4-cyclopentylpiperazin-1-yl)-5,6,7,8-tetrahydropyrido[4,3-d]pyrimidine]
Fc1ccccc1CN1CCc2ncnc(N3CCN(C4CCC4)CC3)c2CC1 [Compound 145, 4-(4-cyclobutylpiperazin-1-yl)-7-(2-fluorobenzyl)-6,7,8,9-tetrahydro-5H-pyrimido[4,5-d]azepine]
Fc1cccc(CN2CCc3ncnc(N4CCN(C5CCC5)CC4)c3CC2)c1 [Compound 146, 4-(4-cyclobutylpiperazin-1-yl)-7-(3-fluorobenzyl)-6,7,8,9-tetrahydro-5H-pyrimido[4,5-d]azepine]
